Results as given in patent US4393225A, “AI-77 Compounds and pharmaceutically acceptable salts thereof” (Asahi Kasei Kogyo Kabushiki Kaisha, priority 1979, dated 1983).
Where two headings read alike, the source gives them in different places.

Tested on: ulcer
Assay: Anti-ulcer test (restraint and water immersion ulcer in rats, i.p.)
Format: in vivo, Male Wistar rats
Conditions: Rattus norvegicus, ip, read-out: % Inhibition of Ulcer
Procedure, shortened: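 Compound given intraperitoneally in saline to 24 h-fasted male Wistar rats about 150 g, followed after one hour by 6 h restraint with water immersion at 21 °C. Gastric lesions graded 0, 0.5, 1, 2 or 3 on microscopic inspection and converted to percent ulcer inhibition.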

SMILES: CC(C)CC(NC(=O)C(O)C(O)C(N)CC(=O)NCc1ccccc1)C1Cc2cccc(O)c2C(=O)O1 (stereo not shown) [VII-1-10]
- inhibition in vivo at 25 mg/kg (25 mg/kg i.p.): 94%

SMILES: CC(C)CC(NC(=O)C(O)C(O)C(N)CC(=O)NC1CC1)C1Cc2cccc(O)c2C(=O)O1 (stereo not shown) [VII-1-11]
- inhibition in vivo at 25 mg/kg (25 mg/kg i.p.): 94%

SMILES: CC(C)CC(NC(=O)C(O)C(O)C(N)CC(=O)NCC1CCCCC1)C1Cc2cccc(O)c2C(=O)O1 (stereo not shown) [VII-1-12]
- inhibition in vivo at 25 mg/kg (25 mg/kg i.p.): 94%

SMILES: CC(C)CC(NC(=O)C(O)C(O)C(N)CC(=O)NCCc1ccccc1)C1Cc2cccc(O)c2C(=O)O1 (stereo not shown) [VII-1-13]
- inhibition in vivo at 25 mg/kg (25 mg/kg i.p.): 89%

SMILES: CC(C)CC(NC(=O)C(O)C(O)C(N)CC(=O)NCc1ccco1)C1Cc2cccc(O)c2C(=O)O1 (stereo not shown) [VII-1-14]
- inhibition in vivo at 25 mg/kg (25 mg/kg i.p.): 89%

SMILES: CC(C)CC(NC(=O)C(O)C(O)C(N)CC(=O)NCC1CCCO1)C1Cc2cccc(O)c2C(=O)O1 (stereo not shown) [VII-1-15]
- inhibition in vivo at 25 mg/kg (25 mg/kg i.p.): 89%

SMILES: CC(C)CC(NC(=O)C(O)C(O)C(N)CC(=O)NCCC1CCCCO1)C1Cc2cccc(O)c2C(=O)O1 (stereo not shown) [VII-1-16]
- inhibition in vivo at 25 mg/kg (25 mg/kg i.p.): 94%

SMILES: CC(=O)N1CCC(CNC(=O)CC(N)C(O)C(O)C(=O)NC(CC(C)C)C2Cc3cccc(O)c3C(=O)O2)CC1 (stereo not shown) [VII-1-17]
- inhibition in vivo at 25 mg/kg (25 mg/kg i.p.): 83%

SMILES: CC(C)CC(NC(=O)C(O)C(O)C(N)CC(=O)NCc1ccc2ccccc2c1)C1Cc2cccc(O)c2C(=O)O1 (stereo not shown) [VII-1-18]
- inhibition in vivo at 25 mg/kg (25 mg/kg i.p.): 78%

SMILES: CC(C)CC(NC(=O)C(O)C(O)C(N)CC(=O)NCCc1ccc2ccccc2c1)C1Cc2cccc(O)c2C(=O)O1 (stereo not shown) [VII-1-19]
- inhibition in vivo at 25 mg/kg (25 mg/kg i.p.): 78%

SMILES: CC(C)CC(NC(=O)C(O)C(O)C(N)CC(=O)NCc1cccc(Cl)c1)C1Cc2cccc(O)c2C(=O)O1 (stereo not shown) [VII-1-20]
- inhibition in vivo at 25 mg/kg (25 mg/kg i.p.): 94%

SMILES: CCC(=O)CNC(=O)CC(N)C(O)C(O)C(=O)NC(CC(C)C)C1Cc2cccc(O)c2C(=O)O1 (stereo not shown) [VII-1-21]
- inhibition in vivo at 25 mg/kg (25 mg/kg i.p.): 100%

SMILES: Cc1ccc(CNC(=O)CC(N)C(O)C(O)C(=O)NC(CC(C)C)C2Cc3cccc(O)c3C(=O)O2)cc1 (stereo not shown) [VII-1-22]
- inhibition in vivo at 25 mg/kg (25 mg/kg i.p.): 83%

SMILES: COc1ccc(CNC(=O)CC(N)C(O)C(O)C(=O)NC(CC(C)C)C2Cc3cccc(O)c3C(=O)O2)cc1 (stereo not shown) [VII-1-24]
- inhibition in vivo at 25 mg/kg (25 mg/kg i.p.): 83%

SMILES: COC(C)CCNC(=O)CC(N)C(O)C(O)C(=O)NC(CC(C)C)C1Cc2cccc(O)c2C(=O)O1 (stereo not shown) [VII-1-26]
- inhibition in vivo at 25 mg/kg (25 mg/kg i.p.): 94%

SMILES: CCCCCOC(C)CCNC(=O)CC(N)C(O)C(O)C(=O)NC(CC(C)C)C1Cc2cccc(O)c2C(=O)O1 (stereo not shown) [VII-1-27]
- inhibition in vivo at 25 mg/kg: 89%

SMILES: CC(=O)OC(C)CCNC(=O)CC(N)C(O)C(O)C(=O)NC(CC(C)C)C1Cc2cccc(O)c2C(=O)O1 (stereo not shown) [VII-1-28]
- inhibition in vivo at 25 mg/kg (25 mg/kg i.p.): 94%

SMILES: CCCCCC(=O)OC(C)CCNC(=O)CC(N)C(O)C(O)C(=O)NC(CC(C)C)C1Cc2cccc(O)c2C(=O)O1 (stereo not shown) [VII-1-29]
- inhibition in vivo at 25 mg/kg (25 mg/kg i.p.): 94%

SMILES: CC(C)=CCCC(C)=CCNC(=O)CC(N)C(O)C(O)C(=O)NC(CC(C)C)C1Cc2cccc(O)c2C(=O)O1 (stereo not shown) [VII-1-30]
- inhibition in vivo at 25 mg/kg (25 mg/kg i.p.): 83%

SMILES: CCC(C)CCCCCNC(=O)CC(N)C(O)C(O)C(=O)NC(CC(C)C)C1Cc2cccc(O)c2C(=O)O1 (stereo not shown) [VII-1-31]
- inhibition in vivo at 25 mg/kg (25 mg/kg i.p.): 83%

SMILES: CC(C)CC(NC(=O)C(O)C(O)C(N)CC(=O)NCC1CCCCCCC1)C1Cc2cccc(O)c2C(=O)O1 (stereo not shown) [VII-1-33]
- inhibition in vivo at 25 mg/kg (25 mg/kg i.p.): 83%

SMILES: CC(C)CC(NC(=O)C(O)C(O)C(N)CC(=O)NCCCC1CCCC1)C1Cc2cccc(O)c2C(=O)O1 (stereo not shown) [VII-1-34]
- inhibition in vivo at 25 mg/kg (25 mg/kg i.p.): 83%

SMILES: Cc1ccc(CCNC(=O)CC(N)C(O)C(O)C(=O)NC(CC(C)C)C2Cc3cccc(O)c3C(=O)O2)cc1 (stereo not shown) [VII-1-35]
- inhibition in vivo at 25 mg/kg (25 mg/kg i.p.): 83%

SMILES: CC(C)CCCC(C)CCCC(C)CCCCNC(=O)CC(N)C(O)C(O)C(=O)NC(CC(C)C)C1Cc2cccc(O)c2C(=O)O1 (stereo not shown) [VII-1-36]
- inhibition in vivo at 25 mg/kg (25 mg/kg i.p.): 83%

SMILES: CC(C)CC(NC(=O)C(O)C(O)C(N)CC(=O)NCc1ccc(C(C)C)cc1)C1Cc2cccc(O)c2C(=O)O1 (stereo not shown) [VII-1-38]
- inhibition in vivo at 25 mg/kg (25 mg/kg i.p.): 94%

SMILES: CCCCCc1ccc(CNC(=O)CC(N)C(O)C(O)C(=O)NC(CC(C)C)C2Cc3cccc(O)c3C(=O)O2)cc1 (stereo not shown) [VII-1-40]
- inhibition in vivo at 25 mg/kg (25 mg/kg i.p.): 94%

SMILES: CCCC=Cc1ccc(CNC(=O)CC(N)C(O)C(O)C(=O)NC(CC(C)C)C2Cc3cccc(O)c3C(=O)O2)cc1 (stereo not shown) [VII-1-41]
- inhibition in vivo at 25 mg/kg (25 mg/kg i.p.): 83%

SMILES: CC(C)CC(NC(=O)C(O)C(O)C(N)CC(=O)NC(C)C)C1Cc2cccc(O)c2C(=O)O1 (stereo not shown) [VII-1-42]
- inhibition in vivo at 25 mg/kg (25 mg/kg i.p.): 94%

SMILES: Cc1ccc(NC(=O)CC(N)C(O)C(O)C(=O)NC(CC(C)C)C2Cc3cccc(O)c3C(=O)O2)cc1 (stereo not shown) [VII-1-43]
- inhibition in vivo at 25 mg/kg (25 mg/kg i.p.): 94%

SMILES: CC(C)CC(NC(=O)C(O)C(O)C(N)CC(=O)NCCN1CCCCC1)C1Cc2cccc(O)c2C(=O)O1 (stereo not shown) [VII-1-46]
- inhibition in vivo at 25 mg/kg (25 mg/kg i.p.): 94%

SMILES: CC(=O)OC(C(=O)NC(CC(C)C)C1Cc2cccc(O)c2C(=O)O1)C(O)C(N)CC(N)=O (stereo not shown) [VII-2-1]
- inhibition in vivo at 25 mg/kg (25 mg/kg i.p.): 78%

SMILES: CC(=O)Oc1cccc2c1C(=O)OC(C(CC(C)C)NC(=O)C(OC(=O)C(C)C)C(O)C(N)CC(N)=O)C2 (stereo not shown) [VII-3-1]
- inhibition in vivo at 25 mg/kg (25 mg/kg i.p.): 78%

SMILES: CCCC(=O)Oc1cccc2c1C(=O)OC(C(CC(C)C)NC(=O)C(OC(C)=O)C(O)C(N)CC(N)=O)C2 (stereo not shown) [VII-3-2]
- inhibition in vivo at 25 mg/kg (25 mg/kg i.p.): 78%

SMILES: CC(C)CC(NC(=O)C(O)C(O)C(N)CC(N)=O)C1Cc2cccc(OC(=O)C(C)C)c2C(=O)O1 (stereo not shown) [VII-4-2]
- inhibition in vivo at 25 mg/kg (25 mg/kg i.p.): 89%
